Laboratory results published in patent US20230271954A1 (Gossamer Bio Services, Inc., priority 2020, published 2023).

How the values were obtained:
DGKζ = biological target: T1, DGKζ (Homo sapiens, UniProt Q13574); assay: DGKζ biochemical assay (ADP-Glo); details: read-out: DGK ζ IC50
T1 construct: purchased Carna 12-110

DGKα = DGKα (Homo sapiens, UniProt P23743); assay: DGKα biochemical assay (ADP-Glo); details: read-out: DGK α IC50
Outline: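 ADP-Glo kinase assay using OAG/PS (1:2) lipid substrate, sonicated, in HEPES pH 7.0 buffer with MgCl2, CaCl2, DTT, BSA, Triton X-100. Enzyme preincubated with compound 30 min at RT; substrate with ATP (DGKα: 400 μM) added, 45 min RT. Luminescence read; % inhibition vs DMSO and no-enzyme controls.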

T1 sequence (Q13574 1-929 isoform Q13574-4): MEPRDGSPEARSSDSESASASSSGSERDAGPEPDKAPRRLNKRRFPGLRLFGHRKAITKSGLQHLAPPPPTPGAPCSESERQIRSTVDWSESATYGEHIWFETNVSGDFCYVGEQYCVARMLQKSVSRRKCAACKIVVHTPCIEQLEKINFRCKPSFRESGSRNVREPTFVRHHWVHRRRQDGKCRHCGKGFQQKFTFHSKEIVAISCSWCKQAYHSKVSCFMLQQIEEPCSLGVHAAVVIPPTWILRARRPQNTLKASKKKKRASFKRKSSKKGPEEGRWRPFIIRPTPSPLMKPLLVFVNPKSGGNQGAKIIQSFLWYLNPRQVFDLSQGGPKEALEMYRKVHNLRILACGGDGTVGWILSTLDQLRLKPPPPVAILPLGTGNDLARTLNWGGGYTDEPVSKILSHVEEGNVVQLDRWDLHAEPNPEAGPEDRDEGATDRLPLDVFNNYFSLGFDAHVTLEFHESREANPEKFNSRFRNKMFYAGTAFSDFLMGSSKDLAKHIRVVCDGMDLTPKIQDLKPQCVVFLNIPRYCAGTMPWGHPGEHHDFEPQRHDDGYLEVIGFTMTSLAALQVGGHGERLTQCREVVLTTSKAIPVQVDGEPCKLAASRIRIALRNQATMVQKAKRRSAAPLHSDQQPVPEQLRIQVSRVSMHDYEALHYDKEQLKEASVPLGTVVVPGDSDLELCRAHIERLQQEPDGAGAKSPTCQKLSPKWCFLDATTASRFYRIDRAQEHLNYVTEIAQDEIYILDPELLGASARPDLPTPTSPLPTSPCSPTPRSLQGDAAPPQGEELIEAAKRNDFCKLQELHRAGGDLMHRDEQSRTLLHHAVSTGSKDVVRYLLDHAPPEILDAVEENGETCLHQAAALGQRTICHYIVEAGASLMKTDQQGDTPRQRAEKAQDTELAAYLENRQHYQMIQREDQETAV
Chain of DGKα (P23743 whole entry): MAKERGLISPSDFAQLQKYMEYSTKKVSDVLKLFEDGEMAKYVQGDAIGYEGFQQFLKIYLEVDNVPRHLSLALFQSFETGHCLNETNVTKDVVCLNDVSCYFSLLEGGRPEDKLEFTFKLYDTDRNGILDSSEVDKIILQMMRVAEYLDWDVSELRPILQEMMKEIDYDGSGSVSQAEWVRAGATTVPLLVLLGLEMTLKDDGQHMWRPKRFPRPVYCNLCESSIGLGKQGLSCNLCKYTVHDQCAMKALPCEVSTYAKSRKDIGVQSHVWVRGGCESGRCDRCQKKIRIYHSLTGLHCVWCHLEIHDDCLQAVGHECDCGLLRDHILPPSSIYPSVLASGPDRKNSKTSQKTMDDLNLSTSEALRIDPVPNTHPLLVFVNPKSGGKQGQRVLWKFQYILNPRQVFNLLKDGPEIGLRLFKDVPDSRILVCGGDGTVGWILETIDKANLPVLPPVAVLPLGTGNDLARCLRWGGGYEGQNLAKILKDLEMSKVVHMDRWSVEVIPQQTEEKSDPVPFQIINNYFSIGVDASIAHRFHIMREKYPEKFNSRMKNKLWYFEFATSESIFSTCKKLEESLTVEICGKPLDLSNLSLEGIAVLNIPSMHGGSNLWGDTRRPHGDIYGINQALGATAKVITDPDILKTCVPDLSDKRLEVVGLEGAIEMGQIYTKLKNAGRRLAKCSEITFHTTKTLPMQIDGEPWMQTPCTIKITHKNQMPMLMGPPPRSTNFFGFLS

| IC50 (DGKζ) [nM] | IC50 (DGKα) [nM] | Structure (SMILES) |
| --- | --- | --- |
| 100 to 1000 | 100 to 1000 | COc1cc(N(CC2CC2)[C@H]2CC[C@H](N(C)c3c(C#N)c(=O)n(C)c4ccc(C#N)nc34)CC2)cc(OC)c1F [Example 115, trans-8-((-4-((cyclopropylmethyl)(4-fluoro-3,5-dimethoxyphenyl)amino)cyclohexyl)(methyl)amino)-5-methyl-6-oxo-5,6-dihydro-1,5-naphthyridine-2,7-dicarbonitrile] |
| 10 to 100 | < 10 | Cn1c(=O)c(C#N)c(N(C)[C@H]2CC[C@@H](N(CC3CCCOC3)c3ccc4c(c3)OCO4)CC2)c2nc(C#N)ccc21 (stereo partly drawn) [Example 116, cis-8-((-4-(benzo[d][1,3]dioxol-5-yl((tetrahydro-2H-pyran-3-yl)methyl)amino)cyclohexyl)(methyl)amino)-5-methyl-6-oxo-5,6-dihydro-1,5-naphthyridine-2,7-dicarbonitrile] |
| 10 to 100 | ≥ 1000 | Cc1ccc(F)cc1N(CC1CC1)[C@H]1CC[C@H](N(C)c2c(C#N)c(=O)n(C)c3ccc(C#N)nc23)CC1 [Example 117, trans-8-((4-((cyclopropylmethyl)(5-fluoro-2-methylphenyl)amino)cyclohexyl)(methyl)amino)-5-methyl-6-oxo-5,6-dihydro-1,5-naphthyridine-2,7-dicarbonitrile] |
| 100 to 1000 | ≥ 1000 | Cc1ccc(F)cc1N(CC1CC1)[C@H]1CC[C@H](N(C)c2c(C#N)c(=O)n(C)c3ccc(Cl)nc23)CC1 [Example 118, trans-6-chloro-4-((4-((cyclopropylmethyl)(5-fluoro-2-methylphenyl)amino)cyclohexyl)(methyl)amino)-1-methyl-2-oxo-1,2-dihydro-1,5-naphthyridine-3-carbonitrile] |
| 10 to 100 | ≥ 1000 | Cc1cc(F)ccc1N(CC1CC1)[C@H]1CC[C@@H](N(C)c2c(C#N)c(=O)n(C)c3ccc(C#N)nc23)CC1 [Example 119, cis-8-((4-((cyclopropylmethyl)(4-fluoro-2-methylphenyl)amino)cyclohexyl)(methyl)amino)-5-methyl-6-oxo-5,6-dihydro-1,5-naphthyridine-2,7-dicarbonitrile] |
| 10 to 100 | 100 to 1000 | COc1cc(F)ccc1N(CC1CCC1)[C@H]1CC[C@H](N(C)c2c(C#N)c(=O)n(C)c3ccc(C#N)nc23)CC1 [Example 120, trans-8-((-4-((cyclobutylmethyl)(4-fluoro-2-methoxyphenyl)amino)cyclohexyl)(methyl)amino)-5-methyl-6-oxo-5,6-dihydro-1,5-naphthyridine-2,7-dicarbonitrile] |
| 10 to 100 | 10 to 100 | Cn1c(=O)c(C#N)c(N(C)[C@H]2CC[C@@H](N(CC3CCC3)c3ccc4c(c3)OC(F)(F)O4)CC2)c2nc(C#N)ccc21 [Example 121, cis-8-((-4-((cyclobutylmethyl)(2,2-difluorobenzo[d] [1,3]dioxol-5-yl)amino)cyclohexyl)(methyl)amino)-5-methyl-6-oxo-5,6-dihydro-1,5-naphthyridine-2,7-dicarbonitrile] |
| 100 to 1000 | 100 to 1000 | Cn1c(=O)cc(N(C)[C@H]2CC[C@@H](N(CC3CC3)c3ccc(F)c(OC4CC4)c3)CC2)c2nc(C#N)ccc21 [Example 122, cis-8-((-4-((3-cyclopropoxy-4-fluorophenyl) (cyclopropylmethyl)amino)cyclohexyl)(methyl)amino)-5-methyl-6-oxo-5,6-dihydro-1,5-naphthyridine-2-carbonitrile] |
| 10 to 100 | 10 to 100 | Cn1c(=O)c(C#N)c(N(C)[C@H]2CC[C@@H](N(CC3CC3)c3ccc(F)c(OC4CC4)c3)CC2)c2nc(C#N)ccc21 [Example 123, cis-8-((-4-((3-cyclopropoxy-4-fluorophenyl) (cyclopropylmethyl)amino)cyclohexyl)(methyl)amino)-5-methyl-6-oxo-5,6-dihydro-1,5-naphthyridine-2,7-dicarbonitrile] |
| 10 to 100 | 100 to 1000 | COc1cc(N(CC2CC2)[C@H]2CC[C@@H](N(C)c3cc(=O)n(C)c4ccc(C#N)nc34)CC2)cc(OC)c1F [Example 124, cis-8-((-4-((cyclopropylmethyl)(4-fluoro-3,5-dimethoxyphenyl)amino)cyclohexyl)(methyl)amino)-5-methyl-6-oxo-5,6-dihydro-1,5-naphthyridine-2-carbonitrile] |
| 100 to 1000 | 100 to 1000 | Cc1cc(N(CC2CC2)[C@H]2CC[C@H](N(C)c3c(C#N)c(=O)n(C)c4ccc(C#N)nc34)CC2)ccc1F [Example 125, trans-8-((4-((cyclopropylmethyl)(4-fluoro-3-methylphenyl)amino)cyclohexyl)(methyl)amino)-5-methyl-6-oxo-5,6-dihydro-1,5-naphthyridine-2,7-dicarbonitrile] |
| 100 to 1000 | 100 to 1000 | Cc1cc(N(CC2CCC2)[C@H]2CC[C@H](N(C)c3c(C#N)c(=O)n(C)c4ccc(C#N)nc34)CC2)ccc1F [Example 126, trans-8-((-4-((cyclobutylmethyl)(4-fluoro-3-methylphenyl)amino)cyclohexyl)(methyl)amino)-5-methyl-6-oxo-5,6-dihydro-1,5-naphthyridine-2,7-dicarbonitrile] |
| 10 to 100 | 100 to 1000 | Cn1c(=O)c(C#N)c(N(C)[C@H]2CC[C@H](N(CC3CCC3)c3ccc(F)cc3C3CC3)CC2)c2nc(C#N)ccc21 [Example 127, trans-8-((-4-((cyclobutylmethyl)(2-cyclopropyl-4-fluorophenyl)amino)cyclohexyl)(methyl)amino)-5-methyl-6-oxo-5,6-dihydro-1,5-naphthyridine-2,7-dicarbonitrile] |
| 100 to 1000 | 100 to 1000 | Cc1ccc(N(CC2CC2)[C@H]2CC[C@H](N(C)c3c(C#N)c(=O)n(C)c4ccc(C#N)nc34)CC2)cc1 [Example 128, trans-8-((-4-((cyclopropylmethyl)(p-tolyl)amino)cyclohexyl)(methyl)amino)-5-methyl-6-oxo-5,6-dihydro-1,5-naphthyridine-2,7-dicarbonitrile] |
| 100 to 1000 | 100 to 1000 | Cc1ccc(N(CC2CCC2)[C@H]2CC[C@H](N(C)c3c(C#N)c(=O)n(C)c4ccc(C#N)nc34)CC2)cc1 [Example 129, trans-8-((-4-((cyclobutylmethyl)(p-tolyl)amino)cyclohexyl)(methyl)amino)-5-methyl-6-oxo-5,6-dihydro-1,5-naphthyridine-2,7-dicarbonitrile] |
| 100 to 1000 | 100 to 1000 | Cc1nc(F)ccc1N(CC1CCOC1)[C@H]1CC[C@H](N(C)c2c(C#N)c(=O)n(C)c3ccc(C#N)nc23)CC1 (stereo partly drawn) [Example 130, trans-8-((-4-((6-fluoro-2-methylpyridin-3-yl) ((tetrahydrofuran-3-yl)methyl)amino)cyclohexyl) (methyl)amino)-5-methyl-6-oxo-5,6-dihydro-1,5-naphthyridine-2,7-dicarbonitrile] |
| 100 to 1000 | 100 to 1000 | Cc1nc(F)ccc1N(CC1CCC1)[C@H]1CC[C@H](N(C)c2c(C#N)c(=O)n(C)c3ccc(C#N)nc23)CC1 [Example 131, trans-8-((-4-((cyclobutylmethyl)(6-fluoro-2-methylpyridin-3-yl)amino)cyclohexyl)(methyl)amino)-5-methyl-6-oxo-5,6-dihydro-1,5-naphthyridine-2,7-dicarbonitrile] |
